PMC11945486, “TAS1R2/TAS1R3 Single-Nucleotide Polymorphisms Affect Sweet Taste Receptor Activation by Sweeteners: The SWEET Project” (Nutrients, 2025)

Molecular target: T1, human TAS1R2-S212G (subunit alone) (Homo sapiens, UniProt Q8TE23, S212G)
T1 construct: expressed in transfected cells; host or cells: HEK293T-Gα16gust44
T1 sequence (Q8TE23 20-839 S212G): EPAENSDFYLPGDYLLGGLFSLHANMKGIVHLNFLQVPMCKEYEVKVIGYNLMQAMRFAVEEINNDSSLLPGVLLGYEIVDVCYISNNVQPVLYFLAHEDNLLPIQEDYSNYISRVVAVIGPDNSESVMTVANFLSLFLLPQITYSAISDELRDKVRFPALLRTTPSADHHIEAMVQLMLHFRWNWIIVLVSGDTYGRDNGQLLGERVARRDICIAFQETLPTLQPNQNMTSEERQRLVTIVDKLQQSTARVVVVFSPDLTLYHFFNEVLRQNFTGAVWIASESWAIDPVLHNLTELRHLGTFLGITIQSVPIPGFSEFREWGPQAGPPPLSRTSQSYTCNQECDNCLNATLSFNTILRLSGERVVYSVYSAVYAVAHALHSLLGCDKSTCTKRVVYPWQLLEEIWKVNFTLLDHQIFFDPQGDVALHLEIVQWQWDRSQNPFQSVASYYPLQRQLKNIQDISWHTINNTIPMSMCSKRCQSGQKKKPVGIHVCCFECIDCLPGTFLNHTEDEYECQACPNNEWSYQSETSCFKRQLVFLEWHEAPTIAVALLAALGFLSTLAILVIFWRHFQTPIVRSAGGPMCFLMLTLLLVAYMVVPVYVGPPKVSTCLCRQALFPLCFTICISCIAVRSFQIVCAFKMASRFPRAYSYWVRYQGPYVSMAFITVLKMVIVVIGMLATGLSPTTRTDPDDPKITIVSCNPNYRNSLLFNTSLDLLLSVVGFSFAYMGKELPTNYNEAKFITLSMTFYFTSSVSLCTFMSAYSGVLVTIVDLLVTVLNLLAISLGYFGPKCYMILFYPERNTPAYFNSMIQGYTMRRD
Experiment: Calcium mobilisation assay, TAS1R2-S212G subunit alone
Assay type: cell-based
Description: The coding sequences for TAS1R2 and TAS1R3 were commercially synthesised, and the human codon was optimised for expression in human cells. The coding sequences of human TAS1R2 and TAS1R3 were subcloned and inserted into the mammalian expression vectors pcDNA6/myc-HisA and pcDNA4/myc-HisA (Invitrogen; Thermo Fisher Scientific; Illkirch, France) between the EcoRI and NotI restriction sites, generating the plasmids pcDNA6-TAS1R2 and pcDNA4-TAS1R3, respectively. To increase protein expression in mammalian cells, an upstream start codon was used, which was a sequence called MAX, corresponding to the QBI SP163 element also described in pcDNA4-HisMax (Invitrogen; Thermo Fisher Scientific; Illkirch, France). To measure the expression level of the receptor by immunohistochemistry, we used the FLAG sequence ([…]) in the C-terminal position, which encodes the FLAG tag epitope. […]
The HEK293T cells were kindly provided by Jay P. Slack (Givaudan Flavors Corporation; Cincinnati, OH, USA). […] The fluorescence intensity was measured for 90 s (excitation 488 nm, emission 510 nm) in an automated fluorometric FlexStation®3 Multi-Mode microplate reader (Molecular Devices; San Jose, CA, USA). […] The Ca^2+ changes were expressed as fractional changes in fluorescent light intensity: ΔF/F = (F − F0)/F0, where F was the fluorescent light intensity at each point, and F0 was the value of emitted fluorescent light prior to stimulus application. To calculate dose–response relationships, the changes in fluorescence upon stimulus application were averaged, mock-subtracted and baseline-corrected. […] The half-maximal effective concentrations (EC50 values) and maximal signal amplitudes were calculated using SigmaPlot software (version 15.0) (Systat Software; San Jose, CA, USA).
For in vitro calcium mobilisation assay performed on hTAS1R2-SNPs, hTAS1R3-SNPs and mTAS1R3-I60T, 6 to 7 concentrations were tested for each sweet compound, plus buffer alone. All concentration–receptor combinations were measured in duplicate, and each experiment was repeated at least 4 times (8 wells/concentration). […]

- EC50: 178 ± 22.7 µM
- R1 = Variant EC50/WT EC50: 2.0
- Max ΔF/F0 (maximal signal amplitude): 0.47 ± 0.02
Structure (SMILES): C=C(C)[C@@H]1CC=C(/C=N/O)CC1 [Perillartine, perillartine]
